The conditions of test [1]: doses of 5, 10 and 20 mg daily; cited from earlier work.
For test [2] the following is noted: wild-type versus CB1 receptor knockout mice; cited from earlier work.
The target in test [3] is T1, human cannabis CB1 receptor (Homo sapiens, UniProt P21554).
T1 construct: expressed in transfected cells; host or cells: human embryonic kidney (HEK) cells, Semliki Forest Virus system
Description: Affinity for cannabinoid CB1 receptors, [3H]-CP-55,940 radioligand binding on HEK cell membranes. As to the method: The affinity of the compounds of the invention for cannabinoid CB1 receptors was determined using membrane preparations of human embryonic kidney (HEK) cells in which the human cannabis CB1 receptor is transiently transfected using the Semliki Forest Virus system in conjunction with [3H]-CP-55,940 as radioligand. After incubation of a freshly prepared cell membrane preparation with the [3H]-ligand, with or without addition of compounds of the invention, separation of bound and free ligand was performed by filtration over glassfiber filters. Radioactivity on the filter was measured by liquid scintillation counting.
The compounds of formula (I) show an excellent affinity for the CB1 receptor, determined with the experimental conditions described in Devane et. al. Mol. Pharmacol. 34 (1988) 605-613.

Where [4] appears, read: affinity for the CB1 receptor, HEK membranes, [3H]-CP-55,940, read-out: IC50.

Consider four compounds from patent US7786128B2, “Indole or benzimidazole derivatives as CB1 inverse agonists” (Hoffmann-La Roche Inc., priority 2004, dated 2010).

Like-named read-outs stand apart in the source and are kept apart here.

T1 sequence (P21554 whole entry): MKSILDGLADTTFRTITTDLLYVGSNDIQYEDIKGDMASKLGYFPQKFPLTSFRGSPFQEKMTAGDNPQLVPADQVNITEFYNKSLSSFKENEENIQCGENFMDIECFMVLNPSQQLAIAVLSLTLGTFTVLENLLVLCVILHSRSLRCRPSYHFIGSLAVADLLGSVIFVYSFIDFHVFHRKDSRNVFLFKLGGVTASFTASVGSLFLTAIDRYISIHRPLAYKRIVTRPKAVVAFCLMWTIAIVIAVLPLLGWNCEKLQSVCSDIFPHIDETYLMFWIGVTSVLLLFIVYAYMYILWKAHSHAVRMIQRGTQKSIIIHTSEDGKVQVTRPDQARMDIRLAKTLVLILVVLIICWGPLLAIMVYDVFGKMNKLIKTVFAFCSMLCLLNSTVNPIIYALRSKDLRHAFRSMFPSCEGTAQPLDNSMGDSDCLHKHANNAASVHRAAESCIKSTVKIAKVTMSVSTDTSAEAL

Consider `Cc1c(C(=O)NN2CCCCC2)nn(-c2ccc(Cl)cc2Cl)c1-c1ccc(Cl)cc1` [SR 141716], for which the “body weight compared to placebo” value in test [1] is recorded as “significantly reduced body weight”. In addition, the food intake result in test [2] is “reduces food intake in wild-type but not knockout mice”. Consider `CC(Oc1ccccc1)c1nc2ccc(N3CCN(S(=O)(=O)N(C)C)CC3)cc2n1Cc1ccc(Cl)cc1` (centres unmarked) [Example 51, 4-[3-(4-chloro-benzyl)-2-(1-phenoxy-ethyl)-3H-benzoimidazol-5-yl]-piperazine-1-sulfonic acid dimethylamide], for which, in test [3], the half-maximal inhibitory concentration (IC50) (in general, the midpoint of a concentration-inhibition curve) amounted to 60 nM. Turning to `CCCCNC(=O)c1ccc2c(c1)nc(COc1ccccc1)n2Cc1ccc(OC(F)(F)F)cc1` [Example 61, 2-Phenoxymethyl-1-(4-trifluoromethoxy-benzyl)-1H-benzoimidazole-5-carboxylic acid butyl-amide], the IC50 in test [3] (setting [4]) amounted to 30 nM. Still for that read-out and setting: then `CCCCNC(=O)c1ccc2c(c1)cc(COc1ccccc1)n2Cc1ccc(OC(F)(F)F)cc1` [Example 101, 2-phenoxymethyl-1-(4-trifluoromethoxy-benzyl)-1H-indole-5-carboxylic acid butylamide], with 20 nM.
